The results in this text go back to patent US6169083A, “Preventives/remedies for stomatitis” (Zeria Pharmaceutical Co., Ltd., priority 1996, dated 2001).

One data set deals with rats. Briefly: Acute toxicity (oral administration to rats). Type of data set: in vivo. How it is done: (2) The LD50 value of the sodium alginate was 5,000 mg/kg as determined by oral administration to rats.
Data set [1] in a line: Clinical examples: treatment of stomatitis in cancer patients subjected to chemotherapy and/or radiotherapy. In kind it is in vivo, patient. An excerpt:
Examples (Clinical Examples):
The frequency indicated in each example indicates a symptomatic process and was judged on the basis of the side effect standard by the Japanese Cancer Association. The frequency and symptom thereof are as follows, and a higher frequency indicates a severer symptom. […]

With `NCCC(=O)[N-][C@@H](Cc1c[nH]cn1)C(=O)[O-].[Zn+2]` [crystalline L-carnosine zinc salt, L-carnosine zinc salt], the LD50 in the data set with rats is listed as 8,441 mg/kg. Moreover, the “clinical outcome of stomatitis” value is “the erosion and ulcer arisen on the intraoral mucosa were completely healed” in data set [1] (Example 1, suspension 150 mg/100 ml, 5 ml, 5 or 6 times a day, 8 days); “the ulcer arisen on the intraoral mucosa and angulus oris was completely healed, and the patient became able to ingest a solid diet” in data set [1] (Example 2, suspension 450 mg/100 ml, 5 ml, 2 to 4 times a day 6 days, then 3 days, swab additional 2 days); “the ulcer arisen on the intraoral mucosa was completely healed, and the patient became able to ingest a solid diet” in data set [1] (Example 3, suspension 300 mg/100 ml, 5 ml, twice a day, 10 days); “the ulcer in the oral cavity was completely healed, and the patient became able to ingest a solid diet” in data set [1] (Example 12, ointment 150 mg in plastibase 100 g, swab, 3 to 5 times a day, 9 days).
In the case of sodium alginate [reference compound], in the data set with rats, the LD50 is listed as 5,000 mg/kg.
